Data as given in patent EP1935986B1, “Luminogenic and fluorogenic compounds and methods to detect molecules or conditions” (priority 2005, dated 2006).
Where “and” joins values, the source holds several entries; their conditions need not be identical. Equal entries are not always repeated.

Legend:
[1] = target: T1, beta-glucuronidase (GUS) (Homo sapiens, UniProt P08236); experiment: Beta-glucuronidase assay with luciferin 6'-glucuronide (luminescent) or 4-methylumbelliferyl glucuronide (fluorescent); format: biochemical; conditions: for limit-of-detection: GUS enzyme detected, luminescent vs fluorescent substrate; for luminescence, + GUS: pH 6.3, 15 minutes
T1 construct: purchased Sigma-Aldrich
T1 sequence (P08236 23-651): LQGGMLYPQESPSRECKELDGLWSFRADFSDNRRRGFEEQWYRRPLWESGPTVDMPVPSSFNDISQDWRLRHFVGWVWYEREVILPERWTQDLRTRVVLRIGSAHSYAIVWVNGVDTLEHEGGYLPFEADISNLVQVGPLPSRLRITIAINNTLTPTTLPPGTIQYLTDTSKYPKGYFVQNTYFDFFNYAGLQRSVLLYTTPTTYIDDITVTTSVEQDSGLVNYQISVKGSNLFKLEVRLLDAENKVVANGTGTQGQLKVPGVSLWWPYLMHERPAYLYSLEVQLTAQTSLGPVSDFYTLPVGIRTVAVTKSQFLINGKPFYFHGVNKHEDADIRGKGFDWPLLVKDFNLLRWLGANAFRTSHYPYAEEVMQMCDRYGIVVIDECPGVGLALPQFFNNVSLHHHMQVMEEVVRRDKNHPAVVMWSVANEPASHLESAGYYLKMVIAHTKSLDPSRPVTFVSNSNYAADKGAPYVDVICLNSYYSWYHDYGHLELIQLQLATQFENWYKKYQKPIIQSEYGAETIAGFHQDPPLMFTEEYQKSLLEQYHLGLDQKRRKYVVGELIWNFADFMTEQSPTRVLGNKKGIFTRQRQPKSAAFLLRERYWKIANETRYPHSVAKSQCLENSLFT
Procedure: The source of the human enzyme was Sigma-Aldrich. GUS was incubated with the substrate in 50 mM MES, pH 6.3, for 15 minutes. […]

[2] = test system: calf intestinal alkaline phosphatase; experiment: Luminescent alkaline phosphatase assay with AP 4, luciferase and ATP; format: biochemical; conditions: 1 µM AP 4
Procedure: Alkaline Phosphatase (Promega Corp. M1821) was diluted in 50 mM Tris Cl, pH 9.3, 1 mM MgCl2, 0.1 mM ZnCl2 to a concentration of 1 fmol/µl to 0.01 zeptomole/µl.
A reaction solution was assembled containing 1 µM AP 4 (Figure 69); 100 µg/ml of the thermostable luciferase, 2 mM ATP; 10 mM MgCl2; 100 µM ZnCl2 in 50 mM Tris Cl, pH 8.5. This solution was allowed to incubate for 1 hour at room temperature to reduce background light production.
Quadruplicate wells in a luminometer plate (Nunc Maxisorb plate) were given 10 µl of the diluted alkaline phosphatase stocks and 100 µl of reaction solution. The plate was incubated at room temperature for 30 minutes, then the light produced by the solutions was measured using a Veritas Luminometer.

[3] = test system: luciferase; experiment: No-enzyme control: activity of luciferase towards the luciferin derivative (background luminescence); conditions: for luminescence, no GUS: 50 mM MES, pH 6.3
Procedure: The reactions (Table 1) were assembled by first adding the water and 1 M BisTris solutions in individual 0.5 ml microfuge tubes, then adding the other components except for the GST #3 solution. Finally, the GST #3 (Figure 12) solution was added to the reactions, the resulting solution was mixed, and the time of addition noted. […]
The GST #3 addition was performed last and the solutions were mixed immediately after addition of GST #3. […] After mixing, the light produced by the solution was measured using a Turner TD 20/20 luminometer.
After assembly, the enzyme stock solutions were diluted 1:10 into 10 mM HEPES, pH 7.5 and the following additions were made to the reactions.
A 5 µl sample of the luciferol DMF solution was added to each of the reactions above and a timer was started upon the addition of the first luciferol/DMF solution to reaction 1. All reactions were kept at room temperature.
After incubating 5 minutes at room temperature, the light produced by these samples was measured using a Turner TD 20 luminometer.
To initiate the conversions, 5 µl of luciferol solution was added to reactions […], 6-9, and 11-15, and 10 µl of luciferol was added to reactions 5 and 10 and the tubes mixed after that addition. Immediately after luciferol addition to reaction 1, a timer was started and the time of luciferol addition to the other tubes noted. After mixing, reaction 11-15 were placed at 37°C.
After incubating 10 minutes at room temperature, the light produced by these samples was read using a Turner TD 20 luminometer (Table 18).
To initiate Step 1, 45 µl of enzyme and buffer were added to each well.
Solution A and Solution B are components of the NADPH Regeneration System (V9510, Promega Corp., Madison WI). […] Solution B contains 40 units/ml glucose-6-phosphate dehydrogenase in 5 mM citrate pH 5.5.

Cc1cc(=O)oc2cc(O[C@@H]3O[C@H](C(=O)O)[C@@H](O)[C@H](O)[C@H]3O)ccc12 [4-methylumbelliferyl glucuronide, reference compound]
Km ([1]; 50 mM MES, pH 6.3): 59 ± 8 µM
limit-of-detection [1]: 2.01 ng/mL

O=C(O)[C@H]1CSC(c2nc3ccc(OCc4ccc(OP(=O)(O)O)cc4)cc3s2)=N1 [AP-4, 6-(4-phosphoric acid benzylether) luciferin]
Net Reading ([2]; # AP molecules 0): 0
Avg Reading ([2]; # AP molecules 6): 2714.67
Net Reading ([2]; # AP molecules 6): 89
light reading, Reaction 1 ([2]; # AP molecules 6): 2706
light reading, Reaction 2 ([2]; # AP molecules 6): 2807
light reading, Reaction 3 ([2]; # AP molecules 6): 2631
Avg Reading ([2]; # AP molecules 60): 2772.5
Net Reading ([2]; # AP molecules 60): 148
light reading, Reaction 1 ([2]; # AP molecules 60): 2920
light reading, Reaction 2 ([2]; # AP molecules 60): 2795
light reading, Reaction 3 ([2]; # AP molecules 60): 2728
light reading, Reaction 4 ([2]; # AP molecules 60): 2647
Avg Reading ([2]; # AP molecules 600): 3079.8
Net Reading ([2]; # AP molecules 600): 455
light reading, Reaction 1 ([2]; # AP molecules 600): 3118
light reading, Reaction 2 ([2]; # AP molecules 600): 3051
light reading, Reaction 3 ([2]; # AP molecules 600): 3345
light reading, Reaction 4 ([2]; # AP molecules 600): 2805
Avg Reading ([2]; # AP molecules 6,000): 3185
Net Reading ([2]; # AP molecules 6,000): 560
light reading, Reaction 1 ([2]; # AP molecules 6,000): 3189
light reading, Reaction 2 ([2]; # AP molecules 6,000): 3144
light reading, Reaction 3 ([2]; # AP molecules 6,000): 3002
light reading, Reaction 4 ([2]; # AP molecules 6,000): 3405
Avg Reading ([2]; # AP molecules 60,000): 5685.3
Net Reading ([2]; # AP molecules 60,000): 3060
light reading, Reaction 1 ([2]; # AP molecules 60,000): 5956
light reading, Reaction 2 ([2]; # AP molecules 60,000): 5641
light reading, Reaction 3 ([2]; # AP molecules 60,000): 5416
light reading, Reaction 4 ([2]; # AP molecules 60,000): 5728
Avg Reading ([2]; # AP molecules 600,000): 30658.5
Net Reading ([2]; # AP molecules 600,000): 28034
light reading, Reaction 1 ([2]; # AP molecules 600,000): 30042
light reading, Reaction 2 ([2]; # AP molecules 600,000): 31132
light reading, Reaction 3 ([2]; # AP molecules 600,000): 29781
light reading, Reaction 4 ([2]; # AP molecules 600,000): 31679
Avg Reading ([2]; # AP molecules 6,000,000): 274510.5
Net Reading ([2]; # AP molecules 6,000,000): 271886
light reading, Reaction 1 ([2]; # AP molecules 6,000,000): 281115
light reading, Reaction 2 ([2]; # AP molecules 6,000,000): 254693
light reading, Reaction 3 ([2]; # AP molecules 6,000,000): 265592
light reading, Reaction 4 ([2]; # AP molecules 6,000,000): 296642
Avg Reading ([2]; # AP molecules 60,000,000): 2394497
Net Reading ([2]; # AP molecules 60,000,000): 2391872
light reading, Reaction 1 ([2]; # AP molecules 60,000,000): 2639163
light reading, Reaction 2 ([2]; # AP molecules 60,000,000): 2283882
light reading, Reaction 3 ([2]; # AP molecules 60,000,000): 2320675
light reading, Reaction 4 ([2]; # AP molecules 60,000,000): 2334267
Avg Reading [3]: 2624.5
light reading, Reaction 1 [3]: 2620
light reading, Reaction 2 [3]: 2735
light reading, Reaction 3 [3]: 2612
light reading, Reaction 4 [3]: 2531

O=C(O)[C@H]1O[C@@H](Oc2ccc3nc(C4=N[C@@H](C(=O)O)CS4)sc3c2)[C@H](O)[C@@H](O)[C@@H]1O [Luciferin 6'-glucuronide]
limit-of-detection [1]: 0.28 ng/mL
signal-to-noise, luminescence ([1]; [GUS] 4.3 ng/ml): 68
signal-to-noise, luminescence ([1]; [GUS] 8.7 ng/ml): 133
signal-to-noise, luminescence ([1]; [GUS] 34.7 ng/ml): 649
signal-to-noise, luminescence ([1]; [GUS] 69.4 ng/ml): 1411
signal-to-noise, luminescence ([1]; [GUS] 138.8 ng/ml): 3104
signal-to-noise, luminescence ([1]; [GUS] 277.5 ng/ml): 7300

O=C(O)[C@H]1O[C@@H](Oc2ccc3nc(C4=N[C@@H](C(=O)O)CS4)sc3c2)[C@H](O)[C@@H](O)[C@@H]1O [drawing 190]
luminescence, no GUS ([3]; [substrate] 3.5 uM): 1,108
luminescence, no GUS ([3]; [substrate] 31.5 uM): 5,068
luminescence, no GUS ([3]; [substrate] 94.4 uM): 13,091
luminescence, no GUS ([3]; [substrate] 283.1 uM): 34,127
luminescence, no GUS ([3]; [substrate] 849.3 uM): 91,975
luminescence, no GUS ([3]; [substrate] 2548.0 uM): 209,219
luminescence, no GUS ([3]; [substrate] […]): 2,190
luminescence, + GUS ([1]; [substrate] 3.5 uM, 50 mM MES): 46,210
luminescence, + GUS ([1]; [substrate] 31.5 uM, 50 mM MES): 232,533
luminescence, + GUS ([1]; [substrate] 94.4 uM, 50 mM MES): 423,619
luminescence, + GUS ([1]; [substrate] 283.1 uM, 50 mM MES): 696,778
luminescence, + GUS ([1]; [substrate] 849.3 uM, 50 mM MES): 994,977
luminescence, + GUS ([1]; [substrate] 2548.0 uM, 50 mM MES): 1,335,243
luminescence, + GUS ([1]; [substrate] […], 50 mM MES): 107,502

OC[C@H]1CSC(c2nc3ccc(O)cc3s2)=N1 [luciferol]
light produced ([3]; Table 18 Rx 1: no enzyme, KPO4 pH 7.4, room temperature, 30/60/95/190/280 minutes): 6.077 and 6.091 and 5.849 and 4.364 and 7.694
light produced ([3]; Table 18 Rx 11: no enzyme, 37°C, time): 5.814 and 6.078 and 6.302 and 6.889 and 8.399
